Results reported in patent publication US20200407398A1, “Short Proline-Rich Lipopeptide Potentiates Minocycline and Rifampicin Against Multidrug-and Extensively Drug-Resistant Pseudomonas Aeruginosa” (priority 2018, published 2020).
Square brackets hold non-standard residues; d marks the D form. Peptide text beside a SMILES is read from it. * marks the point of attachment. Lauroyl = CCCCCCCCCCCC(=O)*

Experiments:
[1] = tested on: P. aeruginosa 264-104354 (MDR/XDR); test: microbe, parasite or virus in culture; conditions: P. aeruginosa 264-104354
Procedure: (§1) We evaluated the activity of SPRLPs in combination with fifteen clinically-used antibiotics against P. aeruginosa. Antibiotics tested included fluoroquinolones (moxifloxacin, ciprofloxacin and levofloxacin), aminoglycosides (gentamicin, tobramycin and amikacin), cephalosporins (ceftazidime and cefotaxime), carbapenems (meropenem and doripenem), aztreonam, rifampicin, minocycline, colistin and fosfomycin. The SPRLPs were screened initially at a fixed concentration of 8 μg/mL (5 μM) in combination with antibiotics against wild-type P. aeruginosa PAO1. We assessed potentiation by at least a four-fold absolute MIC reduction of the antibiotic, after which synergism was further validated by a conventional checkerboard assay. A fractional inhibitory concentration (FIC) index of ≤0.5, 0.5<x≤4 or >4 was interpreted as synergistic, indifferent or antagonistic interaction, respectively (31). FIC index was obtained by adding the FIC values of the antibiotic and the SPRLP adjuvant. FIC of antibiotics was calculated by dividing the MIC of the antibiotic in the presence of the adjuvant by the MIC of the antibiotic alone. Similarly, the FIC of adjuvant was calculated via dividing the MIC of the adjuvant in the presence of the antibiotic by the MIC of the adjuvant alone.
(§2) Isolates used in this study were either obtained from the American Type Culture Collection (ATCC), the Canadian National Intensive Care Unit (CAN-ICU) surveillance study (27) or the Canadian Ward Surveillance (CANWARD) study (28). Clinical isolates belonging to the CAN-ICU and CANWARD studies were recovered from patients suffering a presumed infectious disease entering or admitted in a participating medical center across Canada during the time of study. MDR P. aeruginosa strains in this study refer to those that are resistant to aminoglycosides, fluoroquinolones, cephalosporins, and carbapenems while XDR strains are those that are resistant to aminoglycosides, fluoroquinolones, cephalosporins, carbapenems, aztreonam and penicillin+β-lactamase inhibitor combination (39, 40).
(§3) Microbroth dilution susceptibility test following the Clinical and Laboratory Standards Institute (CLSI) guidelines (32) was performed to assess the in vitro antibacterial activity of SPRLPs. Overnight grown bacterial cultures were diluted in saline to achieve a 0.5 McFarland turbidity, followed by 1:50 dilution in Mueller-Hinton broth (MHB) for inoculation to a final concentration of 5×10^5 colony forming units/mL. The assay was done on a 96-well plate to which the agents of interest were 2-fold serially diluted in MHB and incubated with equal volumes of inoculum at 37° C. for 18 hours. MIC was determined as the lowest concentration to inhibit visible bacterial growth in form of turbidity, which was confirmed using EMax Plus microplate reader (Molecular Devices, USA) at a wavelength of 590 nm. The well containing MHB broth with or without bacterial cells was used as positive or negative control, respectively.
(§4) The assay was performed on a 96-well plate, to which the agents of interest was 2-fold serially diluted in working MHB. Prior to serial dilution, SPRLP was added to the working MHB media so that a fixed final concentration of 8 μg/mL (5 μM) SPRLP per well was achieved. To ensure that the assay was working, the MIC determination test of the studied antibiotic (without SPRLP) was included on the same plate. Similar MIC results between the assay comparator and an independent MIC determination test (on a different plate) ensured validity of the synergy test. Overnight grown bacterial cultures were diluted in saline to 0.5 McFarland turbidity, followed by 1:50 dilution in MHB (without SPRLP) and inoculation into each well to a final concentration of approximately 5×10^5 colony forming units/mL. Wells containing only MHB (without SPRLP) with or without bacterial cells were used as positive or negative control, respectively.

[2] = tested on: P. aeruginosa 101885 (MDR/XDR); test: microbe, parasite or virus in culture; conditions: P. aeruginosa 101885
Procedure: as §1, §2, §3, §4

[3] = tested on: P. aeruginosa 260-97103 (MDR/XDR); test: microbe, parasite or virus in culture; conditions: P. aeruginosa 260-97103
Procedure: as §1, §2, §3, §4

[4] = tested on: P. aeruginosa 101243 (colistin-resistant, MDR/XDR); test: microbe, parasite or virus in culture; conditions: P. aeruginosa 101243 (colistin-resistant)
Procedure: as §1, §2, §3, §4

[5] = tested on: P. aeruginosa 100036 (MDR/XDR); test: microbe, parasite or virus in culture; conditions: P. aeruginosa 100036
Procedure: as §1, §2, §3, §4

[6] = tested on: P. aeruginosa 262-101856 (MDR/XDR); test: microbe, parasite or virus in culture; conditions: P. aeruginosa 262-101856
Procedure: as §1, §2, §3, §4

[7] = tested on: P. aeruginosa 91433 (colistin-resistant, MDR/XDR); test: microbe, parasite or virus in culture; conditions: P. aeruginosa 91433 (colistin-resistant)
Procedure: as §1, §2, §3, §4

[8] = tested on: P. aeruginosa 259-96918 (MDR/XDR); test: microbe, parasite or virus in culture; conditions: P. aeruginosa 259-96918
Procedure: as §1, §2, §3, §4

[9] = tested on: wild-type and MDR/XDR P. aeruginosa clinical isolates
[10] = MIC of minocycline in the presence of 8 μg/mL (5 μM) lipopeptide
[11] = MIC of rifampicin in the presence of 8 μg/mL (5 μM) lipopeptide
[12] = antibiotic or lipopeptide alone
[13] = degree of minocycline potentiation in the presence of 8 μg/mL (5 μM) lipopeptide
[14] = degree of rifampicin potentiation in the presence of 8 μg/mL (5 μM) lipopeptide
[15] = checkerboard assay, P. aeruginosa

CCCCCCCCCCCC(=O)N1CCC[C@@H]1C(=O)N[C@H](CCCNC(=N)N)C(=O)N1CCC[C@@H]1C(=O)N[C@H](CCCNC(=N)N)C(=O)N1CCC[C@@H]1C(=O)N[C@H](CCCNC(=N)N)C(=O)N1CCC[C@@H]1C(N)=O [C12-prp] (Lauroyl-[dP][dR][dP][dR][dP][dR][dP]-NH2)
Absolute MIC MIN [1, 10]: 4 µg/mL
Absolute MIC RMP [1, 11]: 2 µg/mL
MIC (agent alone) [1, 12]: >128 µg/mL
Potentiation [1, 13]: 8-fold
Potentiation [1, 14]: 4-fold
Absolute MIC MIN [2, 10]: 8 µg/mL
Absolute MIC RMP [2, 11]: 4 µg/mL
MIC (agent alone) [2, 12]: >128 µg/mL
Potentiation [2, 13]: 2-fold
Potentiation [2, 14]: 4-fold
Absolute MIC MIN [3, 10]: 2 µg/mL
Absolute MIC RMP [3, 11]: 4 µg/mL
MIC (agent alone) [3, 12]: >128 µg/mL
Potentiation [3, 13]: 8-fold
Potentiation [3, 14]: 4-fold
Absolute MIC MIN [4, 10]: 2 µg/mL
Absolute MIC RMP [4, 11]: 0.5 µg/mL
MIC (agent alone) [4, 12]: >128 µg/mL
Potentiation [4, 13]: 2-fold
Potentiation [4, 14]: 8-fold
Absolute MIC MIN [5, 10]: 8 µg/mL
Absolute MIC RMP [5, 11]: 4 µg/mL
MIC (agent alone) [5, 12]: >128 µg/mL
Potentiation [5, 13]: 2-fold
Potentiation [5, 14]: 4-fold
Absolute MIC MIN [6, 10]: 16 µg/mL
Absolute MIC RMP [6, 11]: 256 µg/mL
MIC (agent alone) [6, 12]: >128 µg/mL
Potentiation [6, 13]: 4-fold
Potentiation [6, 14]: 2-fold
Absolute MIC MIN [7, 10]: 4 µg/mL
Absolute MIC RMP [7, 11]: 2 µg/mL
MIC (agent alone) [7, 12]: >128 µg/mL
Potentiation [7, 13]: 8-fold
Potentiation [7, 14]: 8-fold
Absolute MIC MIN [8, 10]: 4 µg/mL
Absolute MIC RMP [8, 11]: 2 µg/mL
MIC (agent alone) [8, 12]: >128 µg/mL
Potentiation [8, 13]: 4-fold
Potentiation [8, 14]: 8-fold
interaction with minocycline (in words) [9, 15]: potentiated
interaction with rifampicin (in words) [9, 15]: potentiated
MIC (lipopeptide alone) ([9]; wild-type and clinical isolates of P. aeruginosa): > 128 µg/mL
